Converted amounts (≈) assume the structure as drawn. Like-named read-outs stand apart in the source and are kept apart here.
Experiments:
K. pneumoniae 225 [1] = test: MicroScan Walkaway microdilution susceptibility test; assay type: cell-based, Klebsiella pneumoniae; conditions: for MIC: Klebsiella pneumoniae, 225, read-out: MicroScan MIC; for MicroScan susceptibility result: K. pneumoniae 225
[2] = tested on: E. coli HB101 transformant (17 kb plasmid); conditions: disk diffusion, Tr (17 kb) = transformant E. coli HB101
[3] = tested on: E. coli C600 transconjugant; conditions: disk diffusion, Tc = transconjugate E. coli C600
K. pneumoniae 225 [4] = test: NCCLS disk diffusion assay; assay type: cell-based, Klebsiella pneumoniae; conditions: disk diffusion, Kleb 225
K. pneumoniae 225 [5] = test: NCCLS microdilution susceptibility test; assay type: cell-based, Klebsiella pneumoniae; conditions: Klebsiella pneumoniae, 225
E. coli = test: Agar dilution MIC, South African isolates; assay type: cell-based, Escherichia coli; conditions: tzp with tazobactam 4 μg/ml
Source text: (§1) The strains were provided in response to a request for all strains of Enterobacteriaceae, lacking inducible beta-lactamases, that were intermediate or resistant to cefotaxime or ceftazidime. […]

P. mirabilis = test: Agar dilution MIC, South African isolates; assay type: cell-based, Proteus mirabilis; conditions: 4 strains, tzp with tazobactam 4 μg/ml
Source text: During a period of three months in 1993, […] strains of Klebsiella pneumoniae (13 blood, 5 burn, 7 wound, 11 tracheal isolates), 4 strains of Proteus mirabilis (all wound isolates) and 4 strains of Escherichia coli (1 blood, 1 burn, 2 wound isolates) were collected from patients at the following medical centers in South Africa: Tygerberg Hospital near Cape Town, King Edward VIII Hospital in Durban, Chris Hani Baragwanath Hospital in Soweto and Pretoria Academic Hospital in Pretoria. The strains were provided in response to a request for all strains of Enterobacteriaceae, lacking inducible beta-lactamases, that were intermediate or resistant to cefotaxime or ceftazidime. […] Therefore accurate prevalence data were not obtained.
Antibiotic susceptibility was determined by standard disk diffusion (NCCLS Standard M2-T4, 1994) and agar dilution (NCCLS Standard M7-T2, 1994) procedures. Standard powders of antimicrobial agents were kindly provided by the following companies: piperacillin and tazobactam (Lederle Laboratories, Wayne, N.J.); cefoxitin and imipenem, (Merck, Rathway, N.J.); cefotaxime, (Hoechst-Roussel Pharmaceuticals Inc., Somerville, N.J.); ceftazidime, (Glaxo Group Research Ltd., Greenford, England); aztreonam and cefepime, (Bristol-Myers Squibb, Princeton, N.J.). Disks for agar diffusion were obtained from Becton Dickinson Microbiology Systems (Cockeysville, Md.). For quality control purposes, the following quality control strains were run simultaneously with the test organisms E. coli ATCC 25922, Pseudomonas aeruginosa ATCC 27853, E. coli ATCC 35218, and Staphylococcus aureus ATCC 29213. Throughout this study, results were interpreted using NCCLS criteria for disk diffusion (NCCLS Standard M2-T4, 1994) and broth dilution (NCCLS Standard M7-T2, 1994).

K. pneumoniae = test: Agar dilution MIC, South African isolates; assay type: cell-based, Klebsiella pneumoniae; conditions: tzp with tazobactam 4 μg/ml
Source text: as §1

E. aerogenes = assay type: cell-based, Enterobacter aerogenes
Protocol: Antibiotic susceptibilities were determined by standard disk-diffusion (NCCLS Standard M2-A6) and agar-dilution (NCCLS Standard M7-A4) procedures. Disks were obtained from Becton Dickinson Microbiology Systems (Cockeysville, Md.). […] Throughout this study, results were interpreted using NCCLS criteria for disk diffusion (NCCLS M2-A6) and broth dilution (NCCLS M7-A4).

[6] = resistance phenotype Ec1, 3 strains
[7] = resistance phenotype Ec2, 1 strain
[8] = resistance phenotype Kpn3 (K. pneumoniae Pit 68), 1 strain
[9] = resistance phenotype Kpn1, 8 strains
[10] = resistance phenotype Kpn2, 28 strains

## CO[C@@]1(NC(=O)C2SC(=C(C(N)=O)C(=O)O)S2)C(=O)N2C(C(=O)O)=C(CSc3nnnn3C)CS[C@@H]21 (stereo partly shown) [cefotetan]
K. pneumoniae 225 [1]
  MIC: 16 µg/mL (≈ 27.8 µM)
[2]
  Zone Size: 30 mm
[3]
  Zone Size: 11 mm
K. pneumoniae 225 [4]
  Zone Size: 12 mm

## COCC1=C(C(=O)O)N2C(=O)[C@@H](NC(=O)/C(=N\OC)c3csc(N)n3)[C@H]2SC1 [cefpodoxime]
K. pneumoniae 225 [5]
  MIC: 64 µg/mL (≈ 150 µM)

## NCC[C@H](O)C(=O)N[C@@H]1C[C@H](N)[C@@H](O[C@H]2O[C@H](CN)[C@@H](O)[C@H](O)[C@H]2O)[C@H](O)[C@H]1O[C@H]1O[C@H](CO)[C@@H](O)[C@H](N)[C@H]1O [amikacin]
K. pneumoniae 225 [1]
  MicroScan susceptibility result: Resistant
  MIC: > 32 µg/mL
[2]
  Zone Size: 12 mm

## CCN1CCN(C(=O)N[C@@H](C(=O)N[C@@H]2C(=O)N3[C@@H]2SC(C)(C)[C@@H]3C(=O)O)c2ccccc2)C(=O)C1=O [piperacillin]
E. coli; [6]
  MIC range: >128 µg/mL
E. coli; [7]
  MIC range: >128 µg/mL
P. mirabilis
  MIC range: 128 µg/mL
K. pneumoniae 225 [5]
  MIC: > 64 µg/mL
K. pneumoniae; [8]
  MIC range: 64 µg/mL

## CC(=O)OCC1=C(C(=O)O)N2C(=O)[C@@H](NC(=O)Cc3cccs3)[C@H]2SC1 [cephalothin]
K. pneumoniae 225 [5]
  MIC: > 64 µg/mL

## C[C@@H](O)[C@H]1C(=O)N2C(C(=O)O)=C(SCCN=CN)C[C@H]12 [imipenem]
E. coli; [6]
  MIC range: 0.12 µg/mL
E. coli; [7]
  MIC range: 0.12 µg/mL
[2]
  Zone Size: 33 mm
E. aerogenes; 1 E. aerogenes strain with Bush group 1 and group 2be (SHV-3) enzymes
  MIC range: 0.5 µg/mL (≈ 1.67 µM)
E. aerogenes; 1 E. aerogenes strain with Bush group 1 and group 2be (SHV-5) enzymes
  MIC range: 1 µg/mL (≈ 3.34 µM)
E. aerogenes; 29 E. aerogenes strains with Bush group 1 and group 2be (SHV-4) enzymes
  MIC range: 0.5 µg/mL (≈ 1.67 µM)
[3]
  Zone Size: 23 mm
P. mirabilis
  MIC range: 0.5 to 1 µg/mL
K. pneumoniae 225 [5]
  MIC: 1 µg/mL (≈ 3.34 µM)
K. pneumoniae 225 [4]
  Zone Size: 22 mm
K. pneumoniae; [9]
  MIC range: 0.12 µg/mL
K. pneumoniae; [10]
  MIC range: 0.12 to 1 µg/mL
K. pneumoniae; [8]
  MIC range: 0.12 µg/mL

## O=C(N[C@H](CO)[C@H](O)c1ccc([N+](=O)[O-])cc1)C(Cl)Cl [chloramphenicol]
K. pneumoniae 225 [1]
  MicroScan susceptibility result: Resistant
  MIC: > 16 µg/mL
[2]
  Zone Size: 22 mm
[3]
  Zone Size: 12 mm
K. pneumoniae 225 [4]
  Zone Size: 8 mm

## CC1(C)S[C@@H]2[C@H](NC(=O)[C@H](C(=O)O)c3ccsc3)C(=O)N2[C@H]1C(=O)O [ticarcillin]
K. pneumoniae 225 [5]
  MIC: > 64 µg/mL

## CO/N=C(\C(=O)N[C@@H]1C(=O)N2C(C(=O)[O-])=C(C[N+]3(C)CCCC3)CS[C@H]12)c1csc(N)n1 [cefepime]
E. coli; [7]
  MIC range: 2 µg/mL
P. mirabilis
  MIC range: 2 µg/mL
K. pneumoniae 225 [5]
  MIC: 1 µg/mL (≈ 2.08 µM)
K. pneumoniae; [10]
  MIC range: 0.5 to 4 µg/mL

## C=CC1=C(C(=O)O)N2C(=O)[C@@H](NC(=O)/C(=N\OCC(=O)O)c3csc(N)n3)[C@H]2SC1 [cefixime]
K. pneumoniae 225 [5]
  MIC: > 64 µg/mL

## NC[C@H]1O[C@H](O[C@H]2[C@H](O)[C@@H](O[C@H]3O[C@H](CO)[C@@H](O)[C@H](N)[C@H]3O)[C@H](N)C[C@@H]2N)[C@H](N)C[C@@H]1O [tobramycin]
K. pneumoniae 225 [1]
  MicroScan susceptibility result: Resistant
  MIC: > 8 µg/mL

## C[C@@H](O)[C@H]1C(=O)N2C(C(=O)O)=C(S[C@@H]3CN[C@H](C(=O)N(C)C)C3)[C@H](C)[C@H]12 [meropenem]
K. pneumoniae 225 [5]
  MIC: 0.06 µg/mL (≈ 0.156 µM)

## O=C1CN(/N=C/c2ccc([N+](=O)[O-])o2)C(=O)N1 [nitrofurantoin]
K. pneumoniae 225 [1]
  MIC: > 64 µg/mL

## piperacillin/tazobactam
E. coli; [6]
  MIC range: 1 µg/mL
E. coli; [7]
  MIC range: 32 µg/mL
[2]
  Zone Size: 30 mm
[3]
  Zone Size: 14 mm
P. mirabilis
  MIC range: 0.25 to 0.5 µg/mL
K. pneumoniae 225 [4]
  Zone Size: 15 mm
K. pneumoniae; [9]
  MIC range: 2 to 4 µg/mL
K. pneumoniae; [8]
  MIC range: 16 µg/mL

## CC1COc2c(N3CCN(C)CC3)c(F)cc3c(=O)c(C(=O)O)cn1c23 (stereo not shown) [ofloxacin]
K. pneumoniae 225 [1]
  MIC: 2 µg/mL (≈ 5.53 µM)

## C[C@H]1COc2c(N3CCN(C)CC3)c(F)cc3c(=O)c(C(=O)O)cn1c23 [levofloxacin]
K. pneumoniae 225 [1]
  MIC: 2 µg/mL (≈ 5.53 µM)

— patent US6893846B2, “Primers for use in detecting beta-lactamases” (priority 1998, dated 2005)
